Measured values published in patent US20090304825A1, “ESTROGENIC EXTRACTS FOR USE IN TREATING VAGINAL AND VULVAR ATROPHY” (Bionovo, Inc., priority 2008, published 2009).

Columns and labels:
[1] = tested on: TNF-RE tkLuc; test: Antiestrogen effect on TNF-RE tkLuc; type: cell-based; settings: for effect on the repression induced by E2: TNF-RE tkLuc; for activation of TNF-RE tkLuc: antiestrogens, in contrast to E2
From the text: […]. […] […].

[2] = tested on: either receptor (ERα, ERβ); test: Antagonistic effect on estrogen receptors (method not described); type: cell-based
[3] = molecular target: T1, ERβ (Homo sapiens, UniProt Q92731); test: ERE-tk-Luc activation in U2OS osteosarcoma cells co-transfected with ERβ; type: cell-based; set-up: expressed in transfected cells; host or cells: U2OS osteosarcoma cells
From the text: FIGS. 1A-1C. […] (Amarathaceae).

[4] = molecular target: estrogen receptor beta (ERβ) (Homo sapiens, UniProt Q92731); test: Estrogen receptor subtype transcriptional activation (studies, method not described); type: cell-based; settings: "Studies have shown"
[5] = tested on: both estrogen receptor subtypes; test: Binding to estrogen receptor subtypes (method not described); settings: "Studies have shown"
[6] = several small randomized trials; cited from earlier work
[7] = tested on: oopherectomized mice; test: Intra-vaginal administration to oopherectomized mice, vaginal and endometrial histology; type: in vivo
From the text: The glands form back to back without intervening stroma. […] In one area, the glands arise in what appears to be a polyp with a broad stalk and thick fibrovascular core.

[8] = molecular target: T1, ERβ; settings: in the presence of ERβ

T1 sequence (Q92731 whole entry): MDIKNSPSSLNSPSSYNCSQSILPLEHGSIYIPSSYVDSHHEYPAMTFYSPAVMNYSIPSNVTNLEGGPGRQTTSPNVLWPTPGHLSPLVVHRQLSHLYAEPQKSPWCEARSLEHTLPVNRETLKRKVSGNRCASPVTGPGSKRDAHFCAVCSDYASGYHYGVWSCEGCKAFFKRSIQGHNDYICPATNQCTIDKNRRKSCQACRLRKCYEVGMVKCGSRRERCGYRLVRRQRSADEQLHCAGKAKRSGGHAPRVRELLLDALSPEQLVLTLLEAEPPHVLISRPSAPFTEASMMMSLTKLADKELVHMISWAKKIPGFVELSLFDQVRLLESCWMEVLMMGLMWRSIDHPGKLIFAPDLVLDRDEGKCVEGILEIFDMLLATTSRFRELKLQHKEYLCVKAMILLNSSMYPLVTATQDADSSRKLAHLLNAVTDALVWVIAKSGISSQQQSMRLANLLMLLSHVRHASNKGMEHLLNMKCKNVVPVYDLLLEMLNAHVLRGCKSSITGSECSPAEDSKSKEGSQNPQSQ
estrogen receptor beta (ERβ), sequence (Q92731 whole entry): as above

Compound	effect on the repression induced by E2 [1]	activation of TNF-RE tkLuc [1]	antagonistic effect on either receptor [2]	ER subtype transcriptional activation [4]	also measured
CC/C(=C(\c1ccccc1)c1ccc(OCCN(C)C)cc1)c1ccccc1 [tamoxifen]	abolished the repression induced by E2	2 fold			
C=CC(/C=C\c1ccc(O)cc1)c1ccc(O)cc1 (centres unmarked) [Nyasol]			does not have an antagonistic effect on either receptor	ERβ transcriptional activation only	activation of ERE-tk-Luc relative to estradiol (E2) ([3]; compared with 10 nM E2): activation equivalent to 10 nM estradiol; activation in the presence of ER antagonists ([3]; raloxifene (Ral), tamoxifen (Tam), b208 also ICI 182, 780): blocked the activation; binding affinity to estrogen receptor subtypes [5]: binds with equal affinity to both estrogen receptor subtypes
COc1ccc(-c2coc3cc(O)ccc3c2=O)cc1O [Calycosin]			does not have an antagonistic effect on either receptor	ERβ selective transcriptional activation	
Oc1ccc2c(c1)CC[C@H](c1ccccc1)[C@@H]2c1ccc(OCCN2CCCC2)cc1 [lasofoxifene]					vaginal maturation indices and vaginal pH relative to placebo [6]: improvements in vaginal maturation indices and vaginal pH
estrogen					endometrium histology ([7]; mouse model, compared to controls): endomyometrium (the equivalent of complex atypical hyperplasia in women, worrisome for in situ carcinoma); vaginal epithelium histology ([7]; oopherectomized mice, intra-vaginal, VG101 0.5 mg/day for 10 days): squamous epithelium with hyperkeratosis
C[C@]12CC[C@@H]3c4ccc(O)cc4CC[C@H]3[C@@H]1CC[C@@H]2O [E2, estradiol]					repression of TNF-α activation of TNF-RE tkLuc [8]: 60-80%
C[C@]12CC[C@@H]3c4ccc(O)cc4C[C@@H](CCCCCCCCC[S+]([O-])CCCC(F)(F)C(F)(F)F)[C@H]3[C@@H]1CC[C@@H]2O (some centres unmarked) [ICI 182, 780]	abolished the repression induced by E2	2 fold			
O=C(c1ccc(OCCN2CCCCC2)cc1)c1c(-c2ccc(O)cc2)sc2cc(O)ccc12 [raloxifene]	abolished the repression induced by E2	2 fold			antagonist effect on the activation by herbal extracts and active ingredients in VG101 ([3]; ERE-tk-Luc): blocked the activation
COc1c(O)cc2c(=O)c3c(oc2c1O)oc1c(O)cccc13 [TCIF, tetracyclic isoflavone]			does not have an antagonistic effect on either receptor	estrogen receptor beta (ERβ) selective transcriptional activation	
